In the NIST ThermoML archive (doi:10.1016/j.jct.2016.10.031):
± gives the expanded uncertainty stated by the source.

Assay: Molar enthalpy of transition or fusion
Details: Crystal; Adiabatic calorimetry

For `CC(C)(C)c1ccc(Oc2ccc([N+](=O)[O-])cc2)cc1` [1-(tert-butyl)-4-(4-nitrophenoxy)benzene], the “Molar enthalpy of transition or fusion” value was 4.802 ± 0.0406 kcal/mol.
